One data set deals with patient. Put plainly: Adverse event profile when taken with food. It is filed as in vivo. The note with it: once a day with food. On the procedure: In some embodiments, Compound 1 or a pharmaceutically acceptable salt or polymorph thereof is administered to a patient, wherein Compound 1 or a pharmaceutically acceptable salt or polymorph thereof is administered once a day with food. […] The incidence and severity of the side effects, such as nausea, emesis and headache, can be reduced when Compound 1 or a pharmaceutically acceptable salt or polymorph thereof, is taken with food.

In data set [1] the test system is SCD patient neutrophils adhering to activated endothelial cells HMEC-1. Put plainly: In vitro adhesion assay mimicking blood flow: SS patient neutrophils on activated HMEC-1 lined microchannels. Type of data set: cell-based, human. An excerpt:
This appears to be accompanied by a Compound 1-mediated reduction in disease specific cell activation including 67% lower levels of myeloid derived myeloperoxidase (MPO) and 26% lower levels of neutrophil derived arginase in the lung (FIG. 1). […] This was quantified by real time monitoring of the green florescent patches in the mircochannel, as neutrophils are labeled by a specific Alexa Fluor® 488-conjugated antibody before the perfusion step. […] Under these conditions, adhesion was reduced an average of 54% (p=0.03) (FIG. 2). Mechanistically, not willing to be bound by any theory, Compound 1 may target the stationary adhesion step of neutrophils as it lowered expression levels of key neutrophil integrins including CD11a [reduced 23% (p=0.002)], CD11b [reduced 39% (ns)) and CD18 [reduced 47% (p=0.03)) (FIG. 3).

The next data set relates to SCD models. Kind of data set: Circulating levels of PMNs in SCD models. It is filed as in vivo.
The test system of the next data set is Townes mouse model. Put plainly: Plasma sE-Selectin in Townes mouse model of SCD. The note with it: Townes mice treated with Compound 1. Type of data set: in vivo. The text has this: Recently several drugs targeting white cell binding to endothelial cells, have been advancing in clinical studies in patients. Compound 1 is able to increase expression of fetal hemoglobin in patient derived cells and murine models of SCD and reduce vessel occlusion in SCD murine models. In this Example, the ability of Compound 1 to reduce the adhesive properties of neutrophils from SCD patients and reduce sE-Selectin (sE-Sel) and markers of PMN activation in murine SCD models was studied.
Endothelial E-selectin (E-Sel) slows leukocyte rolling, which is followed by stationary adhesion and transmigration of activated leukocytes. Plasma levels of sE-Sel, produced by the enzymatic cleavage of the extracellular domains of E-Sel, are increased in SCD patients and this may be mediated by its interaction with leukocytes. In the Townes mouse model, plasma sE-Sel is increased 144% ([…]) over levels seen in control mice ([…]).

In the case of `C[C@@H]1CN(Cc2ncccn2)C[C@H]1c1cn2c(C3CCOCC3)ncc2c(=O)[nH]1` [Compound 1, 6-[(3S,4S)-4-methyl-1-(pyrimidin-2-ylmethyl)pyrrolidin-3-yl]-3-tetrahydropyran-4-yl-7H-imidazo[1,5-a]pyrazin-8-one], the “effect of food on adverse event profile (nausea, emesis, headache)” value in the data set with patient is “food can dramatically reduce the adverse event profile”. Further, the “incubation time at which inhibitory effect was initiated” value in data set [1] came to 15 min. The “reduction of neutrophil adhesion (average)” value in data set [1] (30 min incubation with 30 μM, p=0.03, FIG. 2) was 54%. For the same molecule, the “effect on neutrophil adhesion to activated HMEC-1” value in data set [1] (added to blood samples prior to the perfusion step) was “reduced adhesions significantly and in a dose dependent manner”. The “circulating levels of PMNs” value with SCD models was “reduced circulating levels of PMNs”. Besides, the plasma sE-Sel in the data set with Townes mouse model (untreated Townes 139, control mice 57) is 92 ng/mL. For the same molecule, in the data set on Townes mouse model (untreated Townes increased 144%), the “plasma sE-Sel levels elevated over control mice” value was 61%.

(Values after patent US12213975B2, “PDE9 inhibitors for treating sickle cell disease” (Cardurion Pharmaceuticals, Inc., priority 2018, dated 2025).)
